Laboratory results taken from patent publication US7001907B2, “Peptide-containing α-ketoamide cysteine and serine protease inhibitors” (Cephaon, Inc., priority 1997, dated 2006).

Target: T1, Recombinant human calpain I (Homo sapiens, UniProt P07384)
T1 construct: made in house
T1 sequence (P07384 1-714): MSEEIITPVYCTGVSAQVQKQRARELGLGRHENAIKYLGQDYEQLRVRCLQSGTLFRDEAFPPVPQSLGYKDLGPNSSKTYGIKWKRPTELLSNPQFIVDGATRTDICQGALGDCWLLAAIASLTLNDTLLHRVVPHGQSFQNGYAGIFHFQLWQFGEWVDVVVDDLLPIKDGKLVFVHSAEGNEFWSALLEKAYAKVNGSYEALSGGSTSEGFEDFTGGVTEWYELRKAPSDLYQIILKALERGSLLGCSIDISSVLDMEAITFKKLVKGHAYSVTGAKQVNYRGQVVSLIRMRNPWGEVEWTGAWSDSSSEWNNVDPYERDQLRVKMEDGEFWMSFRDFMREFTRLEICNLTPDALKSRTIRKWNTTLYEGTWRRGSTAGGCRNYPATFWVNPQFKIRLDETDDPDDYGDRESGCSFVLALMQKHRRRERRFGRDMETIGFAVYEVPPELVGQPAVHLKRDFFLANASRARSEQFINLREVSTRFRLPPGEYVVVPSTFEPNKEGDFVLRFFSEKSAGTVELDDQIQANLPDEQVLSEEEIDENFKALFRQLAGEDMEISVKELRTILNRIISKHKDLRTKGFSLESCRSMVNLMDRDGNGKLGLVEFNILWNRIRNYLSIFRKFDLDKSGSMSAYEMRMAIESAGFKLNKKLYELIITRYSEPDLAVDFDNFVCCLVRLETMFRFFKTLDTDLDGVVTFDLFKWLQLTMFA
T1 sequence (P04632 1-268 partner): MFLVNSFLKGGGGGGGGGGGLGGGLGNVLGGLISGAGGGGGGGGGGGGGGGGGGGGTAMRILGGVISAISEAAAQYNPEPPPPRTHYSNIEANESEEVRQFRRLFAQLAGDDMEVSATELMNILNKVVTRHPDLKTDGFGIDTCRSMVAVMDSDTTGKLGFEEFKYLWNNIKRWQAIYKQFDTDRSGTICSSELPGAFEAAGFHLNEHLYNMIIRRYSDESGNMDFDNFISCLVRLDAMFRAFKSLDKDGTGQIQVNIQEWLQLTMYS
Assay: Inhibition of cysteine protease activity: calpain I, Succ-Leu-Tyr-MNA substrate hydrolysis
Assay type: biochemical
Settings: Table 4, α-ketoamides
Protocol: To evaluate inhibitory activity, stock solutions (40 times concentrated) of each compound to be tested were prepared in 100% anhydrous DMSO and 5 μl of each inhibitor preparation were aliquoted into each of three wells of a 96-well plate. Recombinant human calpain I, prepared by the method of Meyer et al. (Biochem. J. 1996, 314: 511–519; incorporated herein by reference in its entirety), was diluted into assay buffer (i.e., 50 mM Tris, 50 mM NaCl, 1 mM EDTA, 1 mM EGTA, and 5 mM β-mercaptoethanol, pH 7.5, including 0.2 mM Succ-Leu-Tyr-MNA), and 175 μl was aliquoted into the same wells containing the independent inhibitor stocks as well as to positive control wells containing 5 μl DMSO, but no compound. To start the reaction, 20 μl of 50 mM CaCl2 in assay buffer was added to all wells of the plate, excepting three, which were used as background signal baseline controls. Substrate hydrolysis was monitored every 5 minutes for a total of 30 minutes. Substrate hydrolysis in the absence of inhibitor was linear for up to 15 minutes.
Inhibition of calpain I activity was calculated as the percent decrease in the rate of substrate hydrolysis in the presence of inhibitor relative to the rate in its absence. Comparison between the inhibited and control rates was made within the linear range for substrate hydrolysis. The IC50s of inhibitors (concentration yielding 50% inhibition) were determined from the percent decrease in rates of substrate hydrolysis in the presence of five to seven different concentrations of the test compound. The results were plotted as percent inhibition versus log inhibitor concentration, and the IC50 was calculated by fitting the data to the four-parameter logistic equation shown below using the program GraphPad Prism (GraphPad Software, Inc., San Diego, Calif.). y=d+[(a−d)/(1+(x/c)^b)]
The parameters a, b, c, and d are defined as follows: a is % inhibition in the absence of inhibitor, b is the slope, c is the IC50, and d is the % inhibition at an infinite concentration of inhibitor.

Compound | IC50
CC(C)(C)OC(=O)NC1CCCC(NC(=O)C(=O)[C@H](Cc2ccccc2)NC(=O)[C@@H](COCc2ccccc2)NS(C)(=O)=O)C1 (stereo partly drawn) [Compound 55] | 0.042 µM
CS(=O)(=O)N[C@H](COCc1ccccc1)C(=O)N[C@@H](Cc1ccccc1)C(=O)C(=O)NCCNS(=O)(=O)c1ccc(-c2cccc(CN3CCOCC3)c2)s1 [Compound 56] | 0.018 µM
CS(=O)(=O)N[C@H](COCc1ccccc1)C(=O)N[C@@H](Cc1ccccc1)C(=O)C(=O)NCCNS(=O)(=O)c1ccc(CN2CCOCC2)cc1 [Compound 57] | 0.018 µM
CN1CCN(Cc2cccc(-c3ccc(S(=O)(=O)NCCNC(=O)C(=O)[C@H](Cc4ccccc4)NC(=O)[C@@H](COCc4ccccc4)NS(C)(=O)=O)s3)c2)CC1 [Compound 58] | 0.021 µM
CS(=O)(=O)N[C@H](COCc1ccccc1)C(=O)N[C@@H](Cc1ccccc1)C(=O)C(=O)NCCS(=O)(=O)Nc1ccccc1 [Compound 60] | 0.047 µM
CS(=O)(=O)N[C@H](COCc1ccccc1)C(=O)N[C@@H](Cc1ccccc1)C(=O)C(=O)NCCS(=O)(=O)Nc1ccc(C(F)(F)F)cc1 [Compound 61] | 0.032 µM
CS(=O)(=O)N[C@H](COCc1ccccc1)C(=O)N[C@@H](Cc1ccccc1)C(=O)C(=O)NCCCS(=O)(=O)Nc1ccccc1 [Compound 62] | 0.018 µM
CS(=O)(=O)N[C@H](COCc1ccccc1)C(=O)N[C@@H](Cc1ccccc1)C(=O)C(=O)NCCCS(=O)(=O)Nc1ccc(C(F)(F)F)cc1 [Compound 63] | 0.023 µM
CN(CCNC(=O)C(=O)[C@H](Cc1ccccc1)NC(=O)[C@@H](COCc1ccccc1)NS(C)(=O)=O)S(=O)(=O)c1ccc(-c2cccc(C=O)c2)s1 [Compound 65] | 0.019 µM
C[C@H](OCc1ccccc1)[C@@H](NS(C)(=O)=O)C(=O)N[C@@H](Cc1ccccc1)C(=O)C(=O)NCCNS(=O)(=O)c1ccc(-c2ccccn2)s1 [Compound 66] | 0.012 µM
CS(=O)(=O)N[C@H](Cc1ccccc1)C(=O)N[C@@H](Cc1ccccc1)C(=O)C(=O)NCCNS(=O)(=O)c1ccc(-c2ccccn2)s1 [Compound 71] | 0.018 µM
CS(=O)(=O)N[C@H](COCc1ccccc1)C(=O)N[C@@H](Cc1ccccc1)C(=O)C(=O)NCCCS(=O)(=O)NN1CCOCC1 [Compound 80] | 0.169 µM
CS(=O)(=O)N[C@H](COCc1ccccc1)C(=O)N[C@@H](Cc1ccccc1)C(=O)C(=O)NCCCS(=O)(=O)N1CCOCC1 [Compound 81] | 0.124 µM
CN(C)c1cccc2c(S(=O)(=O)NCCNC(=O)C(=O)[C@H](Cc3ccccc3)NC(=O)[C@@H](COCc3ccccc3)NS(C)(=O)=O)cccc12 [Compound 86] | 0.049 µM
CS(=O)(=O)N[C@H](COCc1ccccc1)C(=O)N[C@@H](Cc1ccccc1)C(=O)C(=O)NCCNS(=O)(=O)c1cc2ccccc2s1 [Compound 87] | 0.023 µM
CC(C)C[C@H](NC(=O)OCc1ccccc1)C(=O)N[C@@H](CC(C)C)C(=O)N[C@@H](Cc1ccccc1)C(=O)C(=O)NCCNS(=O)(=O)c1ccc(-c2ccccn2)s1 [Compound 88] | 0.033 µM

Compound | IC50
CS(=O)(=O)N[C@H](COCc1ccccc1)C(=O)N[C@@H](Cc1ccccc1)C(=O)C(=O)NCCNS(=O)(=O)c1ccc(-c2ccc(C=O)cc2)s1 [Compound 90] | 0.017 µM
COCC1CCCN1Cc1ccc(S(=O)(=O)NCCNC(=O)C(=O)[C@H](Cc2ccccc2)NC(=O)[C@@H](COCc2ccccc2)NS(C)(=O)=O)cc1 (stereo partly drawn) [Compound 91] | 0.019 µM
CS(=O)(=O)N[C@H](COCc1ccccc1)C(=O)N[C@@H](Cc1ccccc1)C(=O)C(=O)NCCNS(=O)(=O)c1ccc(-c2ccccc2CN2CCOCC2)s1 [Compound 93] | 0.04 µM
CS(=O)(=O)N[C@H](COCc1ccccc1)C(=O)N[C@@H](Cc1ccccc1)C(=O)C(=O)NCCNS(=O)(=O)c1ccc(-c2ccc(CN3CCOCC3)cc2)s1 [Compound 94] | 0.022 µM
CS(=O)(=O)N[C@H](COCc1ccccc1)C(=O)N[C@@H](Cc1ccccc1)C(=O)C(=O)NCCNS(=O)(=O)c1ccc(-c2cccc(CN3CCCCC3)c2)s1 [Compound 95] | 0.03 µM
CC(=O)Nc1nc(C)c(S(=O)(=O)NCCNC(=O)C(=O)[C@H](Cc2ccccc2)NC(=O)[C@@H](COCc2ccccc2)NS(C)(=O)=O)s1 [Compound 96] | 0.023 µM
CS(=O)(=O)N[C@H](COCc1ccccc1)C(=O)N[C@@H](Cc1ccccc1)C(=O)C(=O)NCCNS(=O)(=O)c1ccc(-c2ccccc2C=O)s1 [Compound 98] | 0.024 µM
CCN(CC)Cc1cccc(-c2ccc(S(=O)(=O)NCCNC(=O)C(=O)[C@H](Cc3ccccc3)NC(=O)[C@@H](COCc3ccccc3)NS(C)(=O)=O)s2)c1 [Compound 101] | 0.022 µM
CN(Cc1cccc(-c2ccc(S(=O)(=O)NCCNC(=O)C(=O)[C@H](Cc3ccccc3)NC(=O)[C@@H](COCc3ccccc3)NS(C)(=O)=O)s2)c1)C1CCCCC1 [Compound 102] | 0.036 µM
CS(=O)(=O)N[C@H](COCc1ccccc1)C(=O)N[C@@H](Cc1ccccc1)C(=O)C(=O)NCCNS(=O)(=O)c1ccc(-c2cccc(CN3CCCC3)c2)s1 [Compound 103] | 0.024 µM
CS(=O)(=O)N[C@H](COCc1ccccc1)C(=O)N[C@@H](Cc1ccccc1)C(=O)C(=O)NCCNS(=O)(=O)c1ccc(-c2cccc(C#N)c2)s1 [Compound 104] | 0.01 µM
CS(=O)(=O)N[C@H](COCc1ccccc1)C(=O)N[C@@H](Cc1ccccc1)C(=O)C(=O)NCCNS(=O)(=O)c1ccc(-c2cccc(CN3CCC3)c2)s1 [Compound 106] | 0.044 µM
COCCN(CCOC)Cc1cccc(-c2ccc(S(=O)(=O)NCCNC(=O)C(=O)[C@H](Cc3ccccc3)NC(=O)[C@@H](COCc3ccccc3)NS(C)(=O)=O)s2)c1 [Compound 109] | 0.022 µM
CS(=O)(=O)N[C@H](COCc1ccccc1)C(=O)N[C@@H](Cc1ccccc1)C(=O)C(=O)NCCNS(=O)(=O)c1ccc(-c2cccc(CN3CCSCC3)c2)s1 [Compound 114] | 0.033 µM
CS(=O)(=O)N[C@H](COCc1ccccc1)C(=O)N[C@@H](Cc1ccccc1)C(=O)C(=O)NCCNS(=O)(=O)c1ccc(-c2cccc(CN3CCC(=O)CC3)c2)s1 [Compound 115] | 0.016 µM
CS(=O)(=O)N[C@@H](COCc1ccccc1)C(=O)N[C@@H](Cc1ccccc1)C(=O)C(=O)NCCNS(=O)(=O)c1ccccc1 [Compound 116] | 0.1 µM

Same assay, conditions: Table 4; 0.1 μM compound; value in brackets marked *

Compound | Percent inhibition @ 0.1 μM (Calpain)
CS(=O)(=O)N[C@H](COCc1ccccc1)C(=O)N[C@@H](Cc1ccccc1)C(=O)C(=O)NC1CCC(=O)NC1 (stereo partly drawn) [Compound 64] | (33)* Percent

Same assay, conditions: Table 5, achiral P2 mimetic α-ketoamides

Compound | IC50
O=C(NCCNS(=O)(=O)c1ccc(-c2ccccn2)s1)C(=O)[C@H](Cc1ccccc1)NC(=O)c1ccccc1 [Compound 117] | 0.8 µM
O=C(NCCNS(=O)(=O)c1ccc(-c2ccccn2)s1)C(=O)[C@H](Cc1ccccc1)NC(=O)c1c(Cl)cccc1Cl [Compound 118] | 0.036 µM
Cc1ccc(Cl)c(C(=O)N[C@@H](Cc2ccccc2)C(=O)C(=O)NCCNS(=O)(=O)c2ccc(-c3ccccn3)s2)c1Cl [Compound 119] | 0.061 µM
O=C(NCCNS(=O)(=O)c1ccc(-c2ccccn2)s1)C(=O)[C@H](Cc1ccccc1)NC(=O)c1c(F)cccc1F [Compound 120] | 0.02 µM
O=C(NCCNS(=O)(=O)c1ccc(-c2ccccn2)s1)C(=O)[C@H](Cc1ccccc1)NC(=O)c1ccc2c(c1)OCO2 [Compound 123] | > 1 µM
COc1ccc(Cl)c(C(=O)N[C@@H](Cc2ccccc2)C(=O)C(=O)NCCNS(=O)(=O)c2ccc(-c3ccccn3)s2)c1 [Compound 125] | 0.065 µM
